Test results: the NIST ThermoML archive (doi:10.1016/j.jct.2017.05.001)

Assay: wn = mass fraction of the nth substance listed
Conditions: Liquid; for mass density: Vibrating tube method

CN(C)CCO [2-(N,N-dimethylamino)ethanol] + O
mass density [kg/m3]
Conditions | w1 = 0.1005 | w1 = 0.202 | w1 = 0.3005 | w1 = 0.3995
333.15 K, 130000 kPa | – | 1018.6 | 1012.4 | 1005.5
333.15 K, 140000 kPa | 1028.8 | 1021.9 | 1015.4 | 1008.7
353.15 K, 100 kPa | 965.2 | 958.1 | 950.2 | 941.1
353.15 K, 500 kPa | 965.3 | 958.1 | 950.3 | 941.2
353.15 K, 1000 kPa | 965.6 | 958.4 | 950.6 | 941.4
353.15 K, 2000 kPa | 966 | 958.8 | 951 | 941.9
353.15 K, 5000 kPa | 967.3 | 960.1 | 952.4 | 943.3
353.15 K, 10000 kPa | 969.5 | 962.4 | 954.7 | 945.8
353.15 K, 15000 kPa | 971.6 | 964.5 | 956.9 | 948.1
353.15 K, 20000 kPa | 973.8 | 966.7 | 959.1 | 950.5
353.15 K, 30000 kPa | 978 | 971 | 963.4 | 954.9
353.15 K, 40000 kPa | 982 | 975 | 967.5 | 959.2
353.15 K, 50000 kPa | 986 | 978.9 | 971.6 | 963.3
353.15 K, 60000 kPa | 989.9 | 982.7 | 975.6 | 967.5
353.15 K, 70000 kPa | 993.6 | 986.6 | 979.3 | 971.2
353.15 K, 80000 kPa | 997.4 | 990.1 | 983 | 975.1
353.15 K, 90000 kPa | 1000.9 | 993.8 | 986.6 | 978.7
353.15 K, 100000 kPa | 1004.6 | 997.3 | 990.1 | 982.4
353.15 K, 110000 kPa | 1008.1 | 1000.7 | 993.6 | 985.9
353.15 K, 120000 kPa | 1011.7 | 1004.1 | 997 | 989.3
353.15 K, 130000 kPa | 1014.9 | 1007.5 | 1000.3 | 992.7
353.15 K, 140000 kPa | 1018.3 | 1010.8 | 1003.5 | 996
373.15 K, 100 kPa | 950.7 | 942.4 | 933.3 | 923.1
373.15 K, 500 kPa | 950.9 | 942.7 | 933.6 | 923.4
373.15 K, 1000 kPa | 951.2 | 942.9 | 933.9 | 923.6
373.15 K, 2000 kPa | 951.7 | 943.4 | 934.4 | 924.2
373.15 K, 5000 kPa | 953 | 944.8 | 935.9 | 925.8
373.15 K, 10000 kPa | 955.4 | 947.2 | 938.4 | 928.4
373.15 K, 15000 kPa | 957.7 | 949.5 | 940.8 | 931.1
373.15 K, 20000 kPa | 959.9 | 951.8 | 943.2 | 933.6

viscosity [mPa·s]
Conditions | w1 = 0.1 | w1 = 0.1005 | w1 = 0.2 | w1 = 0.202 | w1 = 0.3 | w1 = 0.3005 | w1 = 0.3995 | w1 = 0.4
353.15 K, 100 kPa, Concentric cylinders viscometry | 0.475 | – | 0.618 | – | 0.809 | – | – | 1.044
353.15 K, 100 kPa, Falling or rolling sphere viscometry | – | 0.4624 | – | 0.6055 | – | 0.8063 | 1.05 | –
353.15 K, 5000 kPa, Falling or rolling sphere viscometry | – | 0.4644 | – | 0.6064 | – | 0.812 | 1.059 | –
353.15 K, 10000 kPa, Falling or rolling sphere viscometry | – | 0.4671 | – | 0.6135 | – | 0.8213 | 1.074 | –
353.15 K, 15000 kPa, Falling or rolling sphere viscometry | – | 0.4699 | – | 0.6195 | – | 0.8321 | 1.09 | –
353.15 K, 20000 kPa, Falling or rolling sphere viscometry | – | 0.472 | – | 0.6229 | – | 0.8407 | 1.105 | –
353.15 K, 25000 kPa, Falling or rolling sphere viscometry | – | 0.4744 | – | 0.6275 | – | 0.8485 | 1.118 | –
353.15 K, 30000 kPa, Falling or rolling sphere viscometry | – | 0.4772 | – | 0.6338 | – | 0.856 | 1.135 | –
353.15 K, 40000 kPa, Falling or rolling sphere viscometry | – | 0.4824 | – | 0.6411 | – | 0.875 | 1.167 | –
353.15 K, 60000 kPa, Falling or rolling sphere viscometry | – | 0.491 | – | 0.659 | – | 0.9078 | 1.225 | –
353.15 K, 80000 kPa, Falling or rolling sphere viscometry | – | 0.4999 | – | 0.6779 | – | 0.9395 | 1.281 | –
353.15 K, 100000 kPa, Falling or rolling sphere viscometry | – | 0.5096 | – | 0.6942 | – | 0.9726 | 1.337 | –
373.15 K, 5000 kPa, Falling or rolling sphere viscometry | – | 0.359 | – | 0.4516 | – | 0.5788 | 0.7177 | –
373.15 K, 10000 kPa, Falling or rolling sphere viscometry | – | 0.3614 | – | 0.4543 | – | 0.5834 | 0.7267 | –
373.15 K, 15000 kPa, Falling or rolling sphere viscometry | – | 0.3638 | – | 0.4578 | – | 0.5895 | 0.7398 | –
373.15 K, 20000 kPa, Falling or rolling sphere viscometry | – | 0.3659 | – | 0.4624 | – | 0.5971 | 0.7525 | –
373.15 K, 25000 kPa, Falling or rolling sphere viscometry | – | 0.3691 | – | 0.4659 | – | 0.602 | 0.7633 | –
